Reference: patent US20150259313A1, “Antitumor Agent” (priority 2014, published 2015)
“Also recorded” adds a separate entry of the source. Read-outs that look alike come from different tables or passages of the source.

Tests used:
[1] = test system: NCI-H2122 lung cancer xenograft; assay type: in vivo, BALB/c nude mice
Experimental: (§1) NCI-H2122 cells were cultured in RMPI1640 medium, A431 tumor cells were cultured in DMEM medium, all the medium were supplemented with 10% heat inactivated fetal bovine serum, all cells used EDTA containing trypsin, passaged twice a week, incubated at 37° C. in an atmosphere of 5% CO2 in air and cultured.
(§2) 110 BALB/c nude mice, female, 6-8 weeks old, 18-22 g in body weight, were purchased from Shanghai Laboratory Animal Center (SLAC, Shanghai, China). The mice were kept in individually ventilated cage (NC) systems at constant temperature and humidity, with 20.5-24.5° C. for temperature, 40-75% for humidity. With 4 animals in each cage, the size ogf the cage is 325 mm×210 mm×180 mm. The bedding material is corn cob, which is changed twice per week. Animals had free access to irradiation sterilized dry granule food and water during the entire study period. The food and water were changed twice per week. The identification labels for each cage contain the following information: number of animals, sex, strain, and date received treatment, study number, group number, and the starting date of the treatment. Animals were marked by ear coding. The experiments started one week after receiving the animals.
Each mouse were inoculated subcutaneously at the right flank region with NCI-H2122 tumor cells (5×10^7/ml), NCI-H1703 tumor cells (1×10^8/ml) and A431 tumor cells (5×10^7/ml), respectively in a mixture of phosphate-buffered saline and matrigel for tumor development via a 1 ml syringe. The treatments were started when the mean tumor size reached about 200 (150-250) mm^3. […]
8.1 Tumor size was measured twice weekly in two dimensions using a caliper, and the volume was expressed in mm^3 using the formula: V=0.5 a×b^2 where a and b are the long and short diameters of the tumor, respectively. […]
(§3) A one-way analysis of variance was performed followed by multiple comparison procedures. All data was analyzed using SPSS 18.0.*p <0.05 or **P<0.01 are generally considered statistically significant when compared with vehicle group.

[2] = Maximum tolerated dose of jervine on BALB/c nude mice; assay type: in vivo; conditions: 14 days
Experimental: Result indicates the maximum tolerated dose of jervine is higher than 80 mg/kg for BALB/c mice.
Study the maximum tolerated dose of jervine on BALB/c nude mice 9 BALB/c nude mice were divided equally into 3 groups. The mice were orally dosed at 50 mg/kg, 80 mg/kg and 150 mg/kg by groups. […] It was initialy determinded that the maximum tolerated dose is higher than 80 mg/kg for BALB/c nude mice.

[3] = test system: A431 xenograft; assay: A431 basal cell carcinoma xenograft tumor model, inoculated subcutaneously; assay type: in vivo, BALB/c nude mice
Experimental: as §1, §2
(§4) Each mouse were inoculated subcutaneously at the right flank region with NCI-H2122 tumor cells (5×10^7/ml), NCI-H1703 tumor cells (1×10^8/ml) and A431 tumor cells (5×10^7/ml), respectively in a mixture of phosphate-buffered saline and matrigel for tumor development via a 1 ml syringe. The treatments were started when the mean tumor size reached about 200 (150-250) mm^3.
(§5) After tumor volume reached 3000 mm^3 or average tumor volume reached 2000 mm^3, before experimental animals emaciated or coma, anesthesia and euthanasia will be performed. During the experiment, if the weight loss of experimental animal reaches 20%, administration will be discontinued and experimental animals will be observed until the weight returned to 10% range before restart of the administration. In this experiment, when the mean tumor volume reached 2000 mm^3 or at the end of 59 days after the administration, experimental animals will be anesthesiaed to collect tumor mass which will be weighed and photographed.
(§6) 8.1 Tumor size was measured twice weekly in two dimensions using a caliper, and the volume was expressed in mm^3 using the formula: V=0.5 a×b^2 where a and b are the long and short diameters of the tumor, respectively.
(§7) 8.2 T/C, percent value, T and C were the mean volume of the treated and control groups, respectively, on a given day.
as §3

[4] = test system: A431 basal cell carcinoma xenograft; assay: as above; assay type: in vivo, BALB/c nude mice; conditions: 40-80 mg/kg p.o. QD × 21 days
Experimental: as §1, §2, §4, §5, §6, §7, §3

[5] = test system: BXPC-3 human pancreatic carcinoma xenograft; assay type: in vivo, BALB/c nude mice; conditions: BXPC-3 xenograft
Experimental: BXPC-3 tumor cells cultured in RMPI1640 medium supplemented with 10% heat inactivated fetal bovine serum, all cells used EDTA containing trypsin, passaged twice a week, incubated at 37° C. in an atmosphere of 5% CO2 in air and cultured.
40 BALB/c nude mice, female, 6-8 weeks old, 18-22 g in body weight, were purchased from Shanghai Laboratory Animal Center (SLAC, Shanghai, China).
Each mouse was inoculated subcutaneously at the right flank region with BXPC-3 tumor cells (5×10^7) in 0.1 ml of phosphate-buffered saline with matrigel via a 1 ml syringe for tumor development. The treatments were started when the mean tumor size reaches approximately 200 (150-250) mm^3 at 9 days after inoculation.

[6] = test system: hedgehog signaling pathway; assay: Gli luciferase reporter assay in Gli Reporter-NIH3T3 cells stimulated with mShh; assay type: cell-based; conditions: mShh 1 μg/ml, 27 hours, read-out: IC50 for inhibition of the hedgehog signaling pathway
Experimental: In vitro test: Experimental method to measure the inhibition of jervine on the hedgehog signaling pathway
Hedgehog signaling pathway Gli Reporter-NIH3T3 cells were cultured in DMEM medium with 10% Calf serum, 1% Penn-strep, 500 μg/ml of Geneticin.
To perform the Gli luciferase reporter assay, Gli Reporter-NIH3T3 cells were seeded at 25,000 cells per well into white clear-bottom 96-well microplate in 100 μl of growth medium. Cells were incubated at 37° C. and 5% CO2 for overnight. Next day remove the medium from wells and add 45 μl of diluted inhibitor in assay medium (Opti-MEM Reduced Serum Medium+0.5% calf serum+1% non-essential amino acids+1 mM Na-pyruvate+10 mM HEPES+1% Pen/Strep) per well. Incubate cells at 37° C. in a CO2 incubator for 2 hours. Then add 5 μl of diluted mShh in assay medium to wells (final [mShh]=1 μg/ml). Add […] of assay medium to cell-free control wells. Cells were treated for 27 hours. […] Luminescence was measured using a luminometer(BioTek Synergy™ 2 microplate reader) 2.3 Data Analysis
Reporter assays in triplicate were performed at each concentration. The luminescence intensity data were analyzed using the computer software, Graphpad Prism. In the absence of the compound, the luminescence intensity (Lt) in each data set was defined as 100%. In the absence of cells, the luminescence intensity (Lb) in each data set was defined as 0%. […]

[7] = Pharmacokinetic study of jervine in mice; assay type: in vivo; conditions: CD-1 mice
Experimental: Orally dosed: A total of 3 male experimental CD-1 mice, approximately 8 weeks of age at receipt was administered jervine via oral gavage at 10 mg/kg. Blood samples (300 μL) were collected via cardiac puncture predose and at 2 minute, 5 minute, 15 minute, 0.5 hour, 1 hour, 2 hour, 4 hour, 8 hour, 24 hours postdose. Plasma was made form the blood samples in order to measure the concentration of jervine.

[8] = male, mouse, PO 10 mg/Kg, plasma

Compound: CC1=C2C(=O)[C@H]3[C@@H](CC=C4C[C@@H](O)CC[C@@]43C)[C@@H]2CC[C@]12O[C@@H]1C[C@H](C)CN[C@H]1[C@H]2C [jervine, Jervine]
- T/C value (tumor volume) ([1]; 40 mg/kg p.o. QD for 21 days): 0.79
- T/C value (tumor volume) ([1]; 60 mg/kg p.o. QD for 21 days): 0.701
- T/C value (tumor volume) ([1]; 80 mg/kg p.o. QD for 21 days): 0.594
- animal deaths ([2]; 50 mg/kg oral): no animal dead
- weight loss ([2]; 80 mg/kg oral gavage): no significant weight loss
- animal deaths ([2]; 80 mg/kg oral): no animal die; also recorded: no animal dead
- animal deaths ([2]; 150 mg/kg oral, 3 mice per group): Two
- MTD ([2]; mouse, in vivo, oral, BALB/c nude mice): > 80 mg/kg
- T/C value (tumor volume) ([3]; 40 mg/kg p.o. QD for 21 days): 0.52
- T/C value (tumor volume) ([3]; 60 mg/kg p.o. QD for 21 days): 0.80
- T/C value (tumor volume) ([3]; 80 mg/kg p.o. QD for 21 days): 0.82
- side effects / weight loss of the mice [4]: no obvious side effects; also recorded: no significant of weight lose
- T/C value (tumor volume) ([5]; 20 mg/kg iv QD × 21 days): 25.8%
- T/C value (tumor volume) ([5]; 40 mg/kg iv QD × 21 days): 59.1%
- T/C value (tumor volume) ([5]; 80 mg/kg iv QD × 21 days): 54.2%
- IC50 [6]: 50 nM
- F (bioavailability) ([7]; PO 10 mg/Kg, 10 mg/kg): 41.2%
- bioavailability ([7]; male, CD-1, mouse, plasma, po, 10 mg/kg, read-out: F (bioavailability)): 41%
- AUC(0-inf) [7, 8]: 2260 ng·h/mL
- AUC(0-t) [7, 8]: 1790 ng·h/mL
- Cmax [7, 8]: 368 ng/mL
- half-life ([7]; male, mouse, PO 10 mg/Kg, plasma, read-out: T½ (converted)): 11.8 h
